Experimental data reported in patent US9937161B2, “Combinatorial compositions and methods for treatment of melanoma” (THE GENERAL HOSPITAL CORPORATION, priority 2013, dated 2018).

Legend:
[1] = system: BRAF(V600E)+vector and BRAF(V600E)+MITF melanoma cells; assay: Cell number after 2,4-DNP in isogenic cells; type: cell-based, human; conditions: 72 h
Procedure: FIG. 7A are histograms showing the number of BRAF(V600E)+vector and BRAF(V600E)+MITF melanoma cells following treatment with 2,4-DNP with indicated dose for 72 h.
(§1) Indicated cell lines were plated in complete media overnight. […] Results were normalized to cell number. All assays were performed in logarithmically growing cells.

[2] = system: melanoma cells or primary human melanocytes; assay: Cell number after 2,4-DNP, melanoma cells versus melanocytes; type: cell-based; conditions: 50 μg/mL, 72 h
Procedure: FIG. 13 are histograms showing the number of melanoma cells or primary human melanocytes following treatment with 2,4-DNP (50 μg/mL) for 72 h. **, p<0.01 compared to primary melanocytes treated with 2,4-DNP.
as §1

A375P cells [3] = assay: ATP assay after 2,4-DNP; type: cell-based; conditions: 50 μg/mL, 24 h
Procedure: (§2) FIG. 7D are histograms showing the effects of 2,4-DNP (50 μg/mL, 24 h) on ATP in the indicated cell lines in vitro.
(§3) Glucose uptake (relative to total cell numbers) was measured over 24 h as trace [^3H]-deoxyglucose uptake in cells growing in glucose-containing media followed by plate harvest and subsequent analysis on a PerkinElmer® Wallac 1450 Microbeta scintillation counter. Oxygen consumption was measured using XF Flux Analyzer (Seahorse Biosciences) using standard protocols. ATP measurements were conducted using ENLITEN® ATP assay (PROMEGA®) according to standard trichloroacetic acid (TCA) extraction protocols.

UACC257 cells [4] = assay: ATP assay after 2,4-DNP; type: cell-based; conditions: 50 μg/mL, 24 h
Procedure: as §2, §3

A375P cells [5] = assay: Lactate assay after 2,4-DNP; type: cell-based; conditions: 50 μg/mL, 24 h
Procedure: (§4) FIG. 7E are histograms showing the effects of 2,4-DNP (50 μg/mL, 24 h) on the lactate levels in the indicated cell lines in vitro.
as §1

UACC257 cells [6] = assay: Lactate assay after 2,4-DNP; type: cell-based; conditions: 50 μg/mL, 24 h
Procedure: as §4, §1

UACC257 xenografts = assay: Xenograft tumor study; type: in vivo, mice; conditions: 2,4-DNP 20 mg/kg/day or vemurafenib 75 mg/kg/day by oral gavage
A375P xenografts = assay: Xenograft tumor study; type: in vivo, mice; conditions: 2,4-DNP 20 mg/kg/day by oral gavage
Procedure: FIG. 7G are line graphs showing the effect of 2,4-DNP (20 mg/kg/day) or vemurafenib (75 mg/kg/day) on murine melanoma xenografts of A375P cell line (n=7-8 per group). **, p<0.01 compared to vehicle group; ***, p<0.001 compared to vehicle group.
All mouse experiments (tumor nucleation studies and longitudinal drug treatment) were done in accordance with Institutional Animal Care and Use Committee (IACUC) approved animal protocols at Dana-Farber Cancer Institute. Engineered melanoma cells with BRAF(V600E)+vector or +MITF were inoculated subcutaneously at three flank positions (100,000 cells in 100 μL PBS per site) in NCR-FoxNu (male, 6 weeks) animals. Tumor establishment was monitored and experiment was terminated after 10 weeks. For longitudinal tumor treatment studies, melanoma cell lines (A375P and UACC257, both carrying pFUW-mCherry-puro-LUC) were injected subcutaneously into NCR-FoxNu mice (5,000,000 cells in 100 μL PBS with growth factor reduced matrigel). Initial tumor establishment and growth visualized by in vivo imaging by comparing signal obtained seven (7) days apart. […] Treatment with vemurafenib (75 mg/kg/day) or 2,4-DNP (20 mg/kg/day) was administered by oral gavage in 0.5% methyl cellulose and tumor size measured by calipers twice weekly. Mean response measured based on cohorts of 6-7 mice for each arm (and each cell line).

melanoma cells (M14) = assay: Cell number, mitochondrial inhibitors combined with PLX4720; conditions: in vitro; cell number after 72 hrs
Procedure: (§5) Melanoma cell were treated for 24 h with PLX4720 then mitochondrial uncoupler for 48 h, prior to estimation of cell number.
as §5
(§6) Cell number was calculated using the CYQUANT® assay (INVITROGEN™) or crystal violet staining. Lactate measurements were done using the Lactate Assay (BioVision or SIGMA®) per manufacturer's protocols. Indicated cell lines were plated in complete media overnight. Media was changed to serum free-media to avoid interference with the assay for 16 h with either PLX4720 (3 μM) or PLX4032 (1 μM) or vehicle control prior to harvesting cells and measurement of lactate. Results were normalized to cell number. All assays were performed in logarithmically growing cells.

[7] = system: BRAF mutant (UACC-62 and UACC-257) melanoma cell lines; assay: MITOTRACKER Green flow cytometry (mitochondrial density); type: cell-based; conditions: 1 μM, 72 h; two BRAF mutant melanomas
Procedure: (§7) MITOTRACKER® Red, Green and MITOSOX™ were obtained from INVITROGEN™ using manufacturer's recommended protocols. Mean fluorescence was determined by FlowJo software and normalized to vehicle-treated cells.

[8] = system: BRAF wild-type (MeWo) melanoma cell line; assay: as above; type: cell-based; conditions: 1 μM, 72 h
Procedure: as §7

[9] = system: BRAF mutant (UACC-62) melanoma cell line; assay: MITOTRACKER Red flow cytometry; type: cell-based; conditions: 1 μM, 72 h
Procedure: as §7

[10] = system: BRAF mutant (UACC-62) melanoma cell line; assay: MITOSOX fluorescence assay; type: cell-based; conditions: 1 μM, 72 h
Procedure: as §7

[11] = system: BRAF mutant melanoma cell line UACC62; assay: Electron microscopy, mitochondrial number; type: cell-based; conditions: 3 μM, 72 hrs
Procedure: Electron microscopy of UACC-62 melanoma cells treated with vehicle or PLX4720 (3 μM, 72 hrs) was performed at Massachusetts General Hospital's PMB Microscopy Core. Cells were fixed for 1 hr at room temp in 2.0% glutaraldehyde in 0.1 M sodium cacodylate buffer, pH 7.4 (Electron Microscopy Sciences, Hatfield, Pa.). Cells were rinsed in buffer, scraped and pelleted. The pellets were treated with 1.0% osmium tetroxide (EMS) in cacodylate buffer for 1 hr at room temp. They were rinsed and then resuspended in 2.0% agarose for ease of handling. Small pieces were dehydrated through a graded series of ethanol, then infiltrated with eponate resin (Ted Pella, Redding, Calif.) overnight at room temp. They were then embedded in resin overnight at 60° C. Thin sections were cut on a Leica UC6 ultramicrotome, collected onto formvar-carbon coated slot grids and post-stained with uranyl acetate and lead citrate. […] Images were collected with an AMT digital imaging system (Advanced Microscopy Techniques, Danvers, Mass.). Mitochondrial density was calculated by morphometrics by standard protocols.

BRAF mutant melanomas [12] = assay: Lactate assay; type: cell-based; conditions: all BRAF mutant melanomas evaluated; 16 hours
Procedure: (§8) FIG. 1F are histograms showing the lactate levels in media conditioned from the indicated cell lines treated with PLX4720 or vehicle control for 16 hours.
as §6

[13] = system: melanoma cell line that does not contain the BRAF mutation; assay: Lactate assay; type: cell-based; conditions: melanoma cell line without BRAF mutation; 16 hours
Procedure: as §8, §6

[14] = system: melanoma cell line that does not contain the BRAF mutation; assay: phospho-ERK Western blot; type: cell-based; conditions: melanoma cell line without BRAF mutation
Procedure: FIG. 1G are representative Western blots showing activated ERK activity in cells of FIG. 1f using phospho-ERK antibodies.
(§9) Whole cell lysates were prepared in lysis buffer supplemented with protease and phosphatase inhibitors (Roche). Equal amounts of protein were resolved by electrophoresis on gradient gels (Bio-Rad).
(§10) Melanoma biopsies prior and during treatment were sectioned, embedded in paraffin and stained with the phospho-ERK1/2 antibody (Cell Signaling Technology). PLX4720 was used at 1 μM concentration in all assays, whereas control samples were treated with an equal volume of DMSO.

[15] = system: BRAF mutant colon cancer cell lines; assay: phospho-ERK Western blot; type: cell-based; conditions: two BRAF mutant colon cancer cell lines; 1 μM, 24 h
Procedure: FIG. 2B are representative Western blots showing the ERK activity in melanoma or colon cancer cells treated with PLX4720 (1 μM) for 24 h.
as §9, §10

[16] = system: melanomas with BRAF mutations; assay: PGC1α mRNA by quantitative PCR; type: cell-based; conditions: 1 μM, 24 h
BRAF wild-type melanoma = assay: PGC1α mRNA by quantitative PCR; type: cell-based; conditions: 1 μM, 24 h
[17] = system: BRAF mutant colon cancer cell lines; assay: PGC1α mRNA by quantitative PCR; type: cell-based; conditions: two BRAF mutant colon cancer cell lines; 1 μM, 24 h
[18] = system: BRAF mutant melanoma M14 cells; assay: PGC1β mRNA time course; type: cell-based; conditions: over 24 hours
PGC1α promoter = PGC1α promoter luciferase assay; type: cell-based; conditions: UACC-62 cells; 48 h; wild-type promoter
Procedure: The murine PGC1α promoter was obtained from ADDGENE. Mutant promoters were verified by sequencing. UACC-62 cells were transfected with each promoter construct, pRL-CMV Renilla control and a M-MITF overexpression vector. PLX4720 treatment was for 48 h. Results reported are averages of at least three independent experiments, normalized for transfection efficiency using Renilla luciferase.

UACC-257 cells = assay: Pigmentation of cell pellets; type: cell-based; conditions: 72 h
From the text: Equal number of cells was pelleted by centrifugation.

BRAF mutant melanomas [19] = assay: Gene set enrichment analysis of melanoma cell lines treated with vemurafenib; type: cell-based; conditions: PLX4032 treated melanoma cell lines (n = 6)
[20] = system: BRAF(V600E) parental cells; assay: ATP assay in isogenic cells; type: cell-based, human; conditions: 1 μM, 24 h
Procedure: FIG. 6G are histograms showing the ATP levels, normalized to cell number in BRAF(V600E)+vector and BRAF(V600E)+MITF treated with PLX4032 (1 μM) for 24 h. ***, p<0.001 compared to control cells.
as §3

## O=[N+]([O-])c1ccc(O)c([N+](=O)[O-])c1 [2,4-DNP, 2,4-dinitrophenol]
[1]
  sensitivity of BRAF(V600E)+MITF cells versus BRAF(V600E)+vector cells (cell number): significantly more sensitive
[2]
  sensitivity of melanoma cells compared to primary melanocytes (cell number): more sensitive to DNP than primary melanocytes, except A375P
A375P cells [3]
  decrease in ATP: not
UACC257 cells [4]
  ATP: decrease
A375P cells [5]
  increases in lactate: not
UACC257 cells [6]
  lactate: increases
UACC257 xenografts
  tumor growth: profoundly inhibited tumor growth
A375P xenografts
  tumor growth: insensitive
Melanoma cells (M14)
  Combination Index with PLX4720 (additively enhanced the efficacy of PLX4720): 0.9

## CCCS(=O)(=O)Nc1ccc(F)c(C(=O)c2c[nH]c3ncc(Cl)cc23)c1F [PLX4720, N-[3-[(5-Chloro-1H-pyrrolo[2,3-b]pyridin-3-yl)carbonyl]-2,4-difluorophenyl]-1-propanesulfonamide]
[7]
  mitochondrial density (MITOTRACKER Green): increased
[8]
  mitochondrial density (MITOTRACKER Green): did not affect
[9]
  MITOTRACKER Red fluorescence (mitochondrial activity and mass): induced
[10]
  production of mitochondrial oxidative stress (MITOSOX): increased
[11]
  number of mitochondria per cell: significant increase
BRAF mutant melanomas [12]
  lactate levels: reduced
[13]
  lactate levels: did not change
[14]
  ERK signaling: inability of PLX4720 to suppress ERK signaling
[15]
  ERK phosphorylation: suppression of ERK phosphorylation similar to that seen in melanomas
[16]; M14 cells, control siRNA
  PGC1α mRNA: strongly induced
[16]; UACC62 cells, control siRNA
  induction of PGC1α mRNA: 3 fold
[16]; all melanomas with BRAF mutations
  increase in PGC1α mRNA: 3-14 fold
BRAF wild-type melanoma
  expression of PGC1α: No change
[17]
  PGC1α expression: no effect
[18]
  PGC1β mRNA: no change
PGC1α promoter
  activity of PGC1α promoter upstream of luciferase: induction of the wild-type promoter
UACC-257 cells
  pigmentation: increased pigmentation

## CCCS(=O)(=O)Nc1ccc(F)c(C(=O)c2c[nH]c3ncc(-c4ccc(Cl)cc4)cc23)c1F [vemurafenib]
BRAF mutant melanomas [19]; gene set size 15
  ES, CANCERDRUGS_PROBCELL_UP: −0.6598
  NES, CANCERDRUGS_PROBCELL_UP: −1.791
BRAF mutant melanomas [19]; gene set size 17
  ES, CAMPTOTHECIN_PROBCELL_UP: −0.6506
  NES, CAMPTOTHECIN_PROBCELL_UP: −1.802
BRAF mutant melanomas [19]; gene set size 19
  ES, ATP_SYNTHESIS: −0.6141
  ES, FLAGELLAR_ASSEMBLY: −0.6141
  ES, TYPE_III_SECRETION_SYSTEM: −0.6141
  NES, ATP_SYNTHESIS: −1.75
  NES, FLAGELLAR_ASSEMBLY: −1.8
  NES, TYPE_III_SECRETION_SYSTEM: −1.739
BRAF mutant melanomas [19]; gene set size 20
  ES, CITRATE_CYCLE_TCA_CYCLE: −0.8827
  ES, PHOTOSYNTHESIS: −0.6181
  NES, CITRATE_CYCLE_TCA_CYCLE: −2.017
  NES, PHOTOSYNTHESIS: −1.797
BRAF mutant melanomas [19]; gene set size 23
  ES, BRENTANI_TRANSPORT_OF_VESICLES: −0.604
  NES, BRENTANI_TRANSPORT_OF_VESICLES: −1.772
BRAF mutant melanomas [19]; gene set size 25
  ES, HSA00020_CITRATE_CYCLE: −0.6303
  NES, HSA00020_CITRATE_CYCLE: −1.94
BRAF mutant melanomas [19]; gene set size 29
  ES, HSA00640_PROPANOATE_METABOLISM: −0.5472
  NES, HSA00640_PROPANOATE_METABOLISM: −1.733
BRAF mutant melanomas [19]; gene set size 35
  ES, VALINE_LEUCINE_AND_ISOLEUCINE_DEGRADATION: −0.5231
  NES, VALINE_LEUCINE_AND_ISOLEUCINE_DEGRADATION: −1.732
BRAF mutant melanomas [19]; gene set size 42
  ES, HSA000280_VALINE_LEUCINE_AND_ISOLEUCINE_DEGRADATION: −0.5627
  NES, HSA000280_VALINE_LEUCINE_AND_ISOLEUCINE_DEGRADATION: −1.945
BRAF mutant melanomas [19]; gene set size 55
  ES, OXIDATIVE_PHOSPHORYLATION: −0.5114
  NES, OXIDATIVE_PHOSPHORYLATION: −1.891
BRAF mutant melanomas [19]; gene set size 100
  ES, HSA00190_OXIDATIVE_PHOSPHORYLATION: −0.4531
  NES, HSA00190_OXIDATIVE_PHOSPHORYLATION: −1.845
BRAF mutant melanomas [19]; gene set size 227
  ES, PENG_GLUTAMINE_UP: −0.3896
  NES, PENG_GLUTAMINE_UP: −1.777
[20]
  drop in ATP: 42%
